Results from patent US4251563A, “Compositions containing N-nitrosamine formation or oxidation inhibitors and the use thereof” (Pfizer Inc., priority 1979, dated 1981).
Converted amounts (≈) assume the structure as drawn. “And” between values parts separate entries of the source, which are not always exact repeats. Equal entries are not always repeated. Where two headings read alike, the source gives them in different places.

Tests used:
[1] = Dimethylnitrosamine formation in treated and untreated fried bacon, thermal energy analysis (TEA); details: duplicate
Method: (§1) Several base pickle solutions were prepared in tap water using the following proportions of ingredients: 2.0% sodium tripolyphosphate; 2.5% sucrose, 0%, 0.20% or 0.55% sodium erythorbate; 0.12% or 0.20% sodium nitrite; and 17.0% sodium chloride. Each ingredient was added to the water in the order given and completely dissolved before adding the next ingredient. The desired amount of ascorbyl or erythorbyl laurate was added to selected base solutions as follows. A dispersion or ascorbyl or erythorbyl laurate and Tween 20 was prepared by slurrying 2 parts of Tween 20 and 5 parts of ascorbyl or erythorbyl laurate, hydrating the slurry with a small amount of the base pickle solution and vigorously agitating the hydrated slurry for 10 min to break up the large agglomerates that formed. […] The resultant mixture was homogenized 2 times at 1000 psi in a single-stage homogenizer to give the final pickle solution. The pickle solution was chilled to about 40° F. immediately after preparation and used to prepare the bacon on the day of preparation. Duplicate pork bellies of about 10 lbs weight were stitch-pumped using each of the various concentrations of control or laurate treated cooled, agitated pickle solutions. […] The combined bacon slices from each belly were analyzed for dimethylnitrosamine and nitrosopyrrolidine using standard procedures and a TEA analyzer.

[2] = Nitrosopyrrolidine formation in treated and untreated fried bacon, thermal energy analysis (TEA); details: for Level of nitrosopyrrolidine (NPy) detected in fried bacon: duplicate; for Reduction of nitrosopyrrolidine relative to untreated fried bacon: treated vs untreated fried bacon; for Level of reduction of nitrosopyrrolidine compared with tocopherol: vs positive control 500 ppm tocopherol
Method: as §1

[3] = Bologna storage test: panel comparison of color, odor and flavor; details: stored at 36°-40° F. for 1 month
Method: (§2) In a large mixer there are combined 60 lb of whole carcass beef which has been ground through a 1/4" plate, 40 lb of regular pork trimmings which has been ground through a 3/8" plate, 2 lb 12 oz of salt, 8 oz of sugar, 4 oz of ground white pepper, 1 oz of coriander, 1 oz of mace, 0.85 oz of sodium erythorbate, 0.25 oz of sodium nitrite, and 1.00 oz of erythorbyl laurate. 25 lb of chopped ice is added and the mixture is cycled through a mechanical emulsifier until the desired texture is attained. The finished emulsion is transferred to a casing stuffer and stuffed into a No. 8 by 36 in. fibrous casing. The resultant product is ready for smoking, which will require approximately 8 hrs. The product is placed in a smokehouse at 130° F. with the damper open and cooked for 30 min. The damper is then closed and the temperature is raised 10° F./hr to 170° F. The heating is continued at 170° F. until an internal temperature of 156° F. is reached. The resultant bologna is cold showered with tap water for 35 to 40 min, held at room temperature for 30 min, and placed in a cooler at 36°-40° F. This procedure will produce bolognas of approximately 18 lb with a 15 in. circumference.
The treated bologna is sliced, wrapped and stored at 36°-40° F. for 1 month and its color, odor and flavor are compared to a similarly prepared and stored, untreated bologna.

[4] = Bologna N-nitrosamine analysis by TEA
Method: as §2
The two bolognas may be analyzed for N-nitrosamines using standard procedures and a TEA analyzer.

[5] = Hand creme accelerated stability test at 63° C., color, appearance and odor by test panel; details: one month at 63° C.
Method: (§3) A hand creme is prepared by mixing a water phase at 70° C. with an oil phase at 75° C. The oil phase consists of 2.0 g of isopropyl myristate, 2.0 g of cetyl alcohol, 15.0 g of stearic acid, 2.0 g of lanolin, and 20.0 mg of erythorbyl laurate. The water phase consists of 71.6 ml of deionized water, 3.0 g of glycerol, 3.0 g of 70% sorbitol, and 1.4 g of triethanolamine. After thoroughly mixing the oil and water phases, the emulsion is cooled to 45° C. at which time the appropriate perfumes are added and mixed thoroughly into the emulsion. After cooling the emulsion to room temperature, the resultant hand creme is placed in an opaque glass jar and sealed.
(§4) Using an accelerated stability test at 63° C. this hand creme is compared to a similarly prepared hand creme containing no erythorbyl laurate. After one month of storage at 63° C., the color, appearance and odor of both hand cremes are evaluated against freshly prepared control hand creme.

[6] = Hand creme N-nitrosamine analysis by TEA
Method: as §3
Portions of the hand cremes described above may be analyzed for N-nitrosamines using a Thermal Energy Analyzer (TEA) and standard procedures.

[7] = Mayonnaise storage test: color, odor and freshness; details: three months at room temperature; 200 ppm in the vegetable oil
Method: In an electric beater, 20 g of egg yolks, 1.2 g of dry mustard, 3.0 g of salt, and 10 ml of vinegar are combined and well beaten; 144 g of vegetable oil (such as cottonseed, corn, or sesame) which contains 200 ppm (0.02%) of ascorbyl or erythorbyl laurate is then added with constant whipping, and beating is continued until there is complete emulsification and no free oil remains. An additional 10 ml of vinegar is added and the beating is continued for a few minutes longer until the emulsion is smooth and of a semi-solid consistency. The resultant mayonnaise is packed in jars and capped.
After three months of storage at room temperature, the color, odor and freshness of the treated mayonnaise are evaluated against similarly stored, untreated mayonnaise and against freshly prepared mayonnaise.

[8] = Corn flakes storage test: rancid and painty taste; details: six months at room temperature; 0.005% by weight, aqueous spray
Method: In a cylindrical pressure cooker are placed about 1700 pounds of degermed and debranned, No. 4-5 milled, hybrid yellow corn and 36 gallons of flavoring syrup composed of sugar, malt, salt and water. The mixture is cooked at 18 psi steam pressure for about 11/2 hours to produce a moisture content of about 33%. Uniform translucency of the kernels will indicate an adequate cook. The kernels are crushed and dried to about 21% moisture. The dried, crushed grits are then heat tempered at 180° F. for 16 hours in order to evenly distribute the water content. The cooked, dried grits are flaked using a conventional flake roller and are passed directly to the toasting oven where they are heated at 575° F. for 50 seconds to produce the finished flakes of less than 3% moisture content. As they cool, they are treated with an aqueous spray of B-complex vitamins and 0.005% by weight erythorbyl laurate relative to the final corn flakes weight. The treated, finished flakes are placed in paper boxes with waxed paper liners.
Treated and untreated flakes are stored six months at room temperature and then compared.

[9] = Equilibrium oil-water solubility and phase distribution coefficient; type: physicochemical; details: for Total Solubility: oil plus water phase; for solubility: vegetable oil/water, stirred overnight; for Total solubility (in words): oil and water
Method: The oil and water layers were separated by centrifugation at 10,000 rpm for 30 min. Any undissolved ester was removed by gravity filtration through fluted filter paper. The oil and water layers were assayed for ester using 0.01N I2 solution.

[10] = Emollient lotion accelerated stability test; details: accelerated stability tests of Example 3
Method: as §4
An oil phase consisting of 70 g of mineral oil, 30 g of lanolin, and 30 g of glycerol monostearate and heated to 75° C. is added to a water phase consisting of 15 g triethanolamine, 200 mg of erythorbyl caprate, and 849 ml of water, also at 75° C. After thoroughly mixing the oil and water phases at 75° C., the emulsion is cooled to 45° C. and perfumed. After cooling to room temperature the emulsion is homogenized to give the emollient lotion.
Using the accelerated stability tests of Example 3 the treated emollient lotion is compared to a similarly prepared, untreated emollient lotion.

[11] = general statement, not tested in Example 7; cited from earlier work
[12] = 120 ppm NaNO2, 550 ppm NaEr + 500 ppm EL
[13] = organic solvent or mixture, read-out: Oil Phase Solubility
[14] = read-out: Water Phase Solubility
[15] = 120 ppm NaNO2, 550 ppm NaEr + 500 ppm AL, listed as AL
[16] = 120 ppm NaNO2, 200 ppm NaEr only (null control)
[17] = 200 ppm NaNO2, 200 ppm NaEr only

## CCCCCCCCCCCC(=O)OC[C@@H](O)[C@H]1OC(=O)C(O)=C1O [erythorbyl laurate]
[1]; 120 ppm NaNO2, 550 ppm NaEr + 250 ppm EL, listed as EL
  Level of dimethylnitrosamine (DMNA) detected in fried bacon: 1.2 ppb and 1.7 ppb
[1]; [12]
  Level of dimethylnitrosamine (DMNA) detected in fried bacon: trace (Trace means less than 1 ppb)
[1]; 120 ppm NaNO2, 995 ppm EL, no NaEr, listed as EL
  Level of dimethylnitrosamine (DMNA) detected in fried bacon: 1.2 ppb and 1.0 ppb
[1]; 200 ppm NaNO2, 550 ppm NaEr + 250 ppm EL
  Level of dimethylnitrosamine (DMNA) detected in fried bacon: 2.0 ppb
[1]; 200 ppm NaNO2, 550 ppm NaEr + 500 ppm EL, listed as EL
  Level of dimethylnitrosamine (DMNA) detected in fried bacon: 1.3 ppb and 1.9 ppb
[1]; 200 ppm NaNO2, 995 ppm EL, no NaEr, listed as EL
  Level of dimethylnitrosamine (DMNA) detected in fried bacon: 2.2 ppb and 1.7 ppb
[2]; [12]
  Level of nitrosopyrrolidine (NPy) detected in fried bacon: trace (Trace means less than 1 ppb)
[2]; 200 ppm NaNO2, 550 ppm NaEr + 500 ppm EL
  Level of nitrosopyrrolidine (NPy) detected in fried bacon: trace (Trace means less than 1 ppb)
[2]
  Reduction of nitrosopyrrolidine relative to untreated fried bacon: approximately four
  Level of reduction of nitrosopyrrolidine compared with tocopherol: about the same
[3]
  Objectionable change in color, odor and flavor relative to untreated bologna: substantially less objectionable change
[4]
  Levels of N-nitrosamines relative to untreated bologna: substantially reduced levels of N-nitrosamines
[5]
  Objectionable change in color, appearance and odor relative to untreated hand creme: substantially less objectionable change
[6]
  Levels of N-nitrosamines relative to untreated hand creme: substantially reduced levels of N-nitrosamines
[7]
  Objectionable change in color, odor and freshness of mayonnaise: substantially less objectionable change
[8]
  Rancid and painty taste relative to untreated flakes: insignificant rancid and painty taste
[9]
  Total Solubility: 700 ppm
[9]; [13]
  solubility: 450 µg/mL (≈ 1260 µM)
[9]; [14]
  solubility: 350 µg/mL (≈ 976 µM)

## CCCCCCCCCCCCCCCC(=O)OC[C@H](O)[C@H]1OC(=O)C(O)=C1O [ascorbyl palmitate, reference compound]
[9]; Example 7
  Total solubility (in words): low total solubility
[9]
  Total Solubility: 175 ppm
[9]; [13]
  solubility: 110 µg/mL (≈ 265 µM)
[9]; [14]
  solubility: 65 µg/mL (≈ 157 µM)

## CCCCCCCCCC(=O)OC[C@@H](O)[C@H]1OC(=O)C(O)=C1O [erythorbyl caprate]
[10]
  Degradation relative to untreated emollient lotion: substantially less degradation
[9]
  Total Solubility: 4000 ppm
[9]; [13]
  solubility: 1500 µg/mL (≈ 4540 µM)
[9]; [14]
  solubility: 2500 µg/mL (≈ 7570 µM)

## COc1ccc(O)c(C(C)(C)C)c1 [BHA]
[11]
  Distribution coefficient (oil/water) (in words): essentially infinity
  Water solubility (in words): water-insoluble

## tocopherol [reference compound]
[2]; 120 ppm NaNO2, 550 ppm NaEr + 500 ppm TOC (positive control)
  Level of nitrosopyrrolidine (NPy) detected in fried bacon: none detected (Limit of detection is 0.2 ppb)
[11]
  Distribution coefficient (oil/water) (in words): essentially infinity

## Cc1cc(C(C)(C)C)c(O)c(C(C)(C)C)c1 [BHT]
[11]
  Distribution coefficient (oil/water) (in words): essentially infinity
  Water solubility (in words): water-insoluble

## CCCCCCCCCCCC(=O)OC[C@H](O)[C@H]1OC(=O)C(O)=C1O [ascorbyl laurate]
[1]; [15]
  Level of dimethylnitrosamine (DMNA) detected in fried bacon: 2.7 ppb and 1.7 ppb
[1]; 200 ppm NaNO2, 550 ppm NaEr + 500 ppm AL, listed as AL
  Level of dimethylnitrosamine (DMNA) detected in fried bacon: 1.6 ppb and 2.6 ppb
[2]; [15]
  Level of nitrosopyrrolidine (NPy) detected in fried bacon: 1.4 ppb and 2.4 ppb
[2]
  Reduction of nitrosopyrrolidine relative to untreated fried bacon: approximately four
  Level of reduction of nitrosopyrrolidine compared with tocopherol: about the same
[7]
  Objectionable change in color, odor and freshness of mayonnaise: substantially less objectionable change
[9]
  Total Solubility: 390 ppm
[9]; [13]
  solubility: 250 µg/mL (≈ 697 µM)
[9]; [14]
  solubility: 140 µg/mL (≈ 391 µM)

## O=C1O[C@H]([C@H](O)CO)C(O)=C1O [NaEr, sodium erythorbate, reference compound]
[1]; [16]
  Level of dimethylnitrosamine (DMNA) detected in fried bacon: 1.0 ppb and 1.2 ppb
[1]; 120 ppm NaNO2, 550 ppm NaEr only (null control)
  Level of dimethylnitrosamine (DMNA) detected in fried bacon: trace (Trace means less than 1 ppb)
[1]; [17]
  Level of dimethylnitrosamine (DMNA) detected in fried bacon: 2.1 ppb and 1.6 ppb
[2]; [16]
  Level of nitrosopyrrolidine (NPy) detected in fried bacon: 4.2 ppb and 3.3 ppb
[2]; [17]
  Level of nitrosopyrrolidine (NPy) detected in fried bacon: 3.6 ppb and 3.9 ppb

## CC(C)(C)c1cc(O)ccc1O [TBHQ]
[11]
  Distribution coefficient (oil/water) (in words): essentially infinity
  Water solubility (in words): water-insoluble

## CCCCCCCCCC(=O)OC[C@H](O)[C@H]1OC(=O)C(O)=C1O [ascorbyl caprate, reference compound]
[9]; Example 7
  Total solubility (in words): high total solubility
[9]
  Total Solubility: 5400 ppm
[9]; oil/water, Example 7
  Distribution coefficient (in words): very low distribution coefficient
[9]; [13]
  solubility: 100 µg/mL (≈ 303 µM)
[9]; [14]
  solubility: 5300 µg/mL (≈ 16000 µM)
